{"source": "patent US7833795B2", "about": "“Assessment of cardiovascular risk using isoprostane biomarkers and COX-2 selective inhibitors” (The Trustees of the University of Pennsylvania, priority 2004, dated 2010)", "key": {"Male Fisher 344 rats [1]": {"test_system": "Male Fisher 344 rats", "experiment": "Plasma free plus esterified 8-iso-PGF2α by GC/MS", "format": "in vivo, rat", "description": "(§1) Animals and treatment protocol: Male Fisher 344 rats (260-280 g) obtained from Charles River Laboratories (Raleigh, N.C.) were used in all experiments. The animals were housed three to a cage. Autoclaved hardwood bedding was used in solid-bottom polycarbonate cages with filter tops. Animal rooms were maintained at 20-25° C. with 35-70% relative humidity with alternating 12-hour light and dark cycles. The rats had free access to deionized, reverse-osmosis-treated water and received autoclaved NIH 31 rodent chow (Zeigler Bros., Gardners, Pa.) ad libitum. For all experiments, rats were fasted overnight and then administered intraperitoneal injections of carbon tetrachloride in canola oil. Control rats received an equal volume of canola oil. Fasting continued throughout the experiment. Rats were anesthetized with Nembutal (0.1 ml/100 g body weight) and 5 ml blood was removed from the dorsal aorta proximal to its bifurcation into the common iliac arteries.\n(§2) Indomethacin pretreatment: The indomethacin regimen used has been previously shown to inhibit COX activity in rats by 90% (dose of 5 mg/kg s.c. 24 hours, 12 hours, and 2 hours prior to the injection of CCl4) (Jackson, 1989, J. Pharmacol. Exp. Ther. 250: 9-21). An additional booster dose was injected 8 hours after the last injection of CCl4 for the measurements performed 16 hours after treatment with CCl4.\n(§3) Meclofenamic acid pretreatment: Meclofenamic acid was injected at a dose of 5 mg/kg i.p. 12 h and 2 h prior to the injection of CCl4.\n(§4) Carbon tetrachloride (CCL4) treatment: Animals from each of the three dose groups (Control-canola oil, 120 mg/kg CCl4 i.p. and 1200 mg/kg CCl4 i.p.) were investigated at three time points (2, 7, and 16 hours after CCl4 injection). Indomethacin-pretreated rats were also investigated at the same three time points, and the meclofenamic acid-pretreated rats were investigated at one time point (7 hours). Each group consisted of five rats for each analysis, except the meclofenamic acid pretreatment group which consisted of six rats. Animal treatment, sample preparation, assessment of liver histology and serum enzyme activities are described elsewhere (Kadiiska et al., 2000, Free Radic. Biol. Med. 28: 838-845; Jackson, 1989, J. Pharmacol. Exp. Ther. 250: 9-21) and were carried out at NIEHS, Research Triangle Park, N.C.\n(§5) Plasma sample preparation: Blood (5 ml) was drawn through single draw Vacutainer® needles (21 Gauge) into open Vacutainer® blood collection tubes containing heparin. The tubes were gently inverted 2-3 times for mixing and immediately placed on ice. Blood was centrifuged (2,000 rpm for 10 minutes at 4° C.) no more than 30 minutes after collection, and the plasma was collected, frozen on dry ice and stored at −70° C.\nMeasurement of the sum of free plus esterified 8-iso-PGF2α in plasma were performed using an improved GC/MS-based analysis for the quantitation of this isoprostane in plasma. A detailed protocol for this extraction and quantitation has been published (Parker et al., 2001, Mol. Biotechnol. 18: 105-118). Measurements of the sum of free plus esterified 8-iso-PGF2α in plasma were performed at NIEHS, Research Triangle Park, N.C."}, "Male Fisher 344 rats [2]": {"test_system": "Male Fisher 344 rats", "experiment": "Urinary MDA by HPLC with spectrophotometry", "format": "in vivo, rat", "conditions": "for urinary MDA: meclofenamic acid pretreatment", "description": "as §1, §2, §3, §4\n(§6) Urine sample preparation: The day prior to treatment, both experimental and control animals were placed in stainless steel metabolic cages especially designed for urine collection. For Experimental Example 2, animals were placed in metabolic cages immediately after the last injection of indomethacin or meclofenamic acid. Urine was collected (in dark vials) from the animals during the following intervals: 2 to 7 hours and 7 to 16 hours after CCl4 or canola oil (controls) treatment. Urine samples from indomethacin-pretreated rats were collected from 2 to 7 hours and 7 to 16 hours after the injection of CCl4, whereas samples from meclofenamic-acid-pretreated rats were collected only from 2 to 7 hours after the injection. All urine samples were immediately frozen on dry ice and stored at −70° C.\nUrinary MDA was analyzed using high pressure liquid chromatography (HPLC). To 500 μl urine samples, 25 μl BHT and 750 μl 0.5% TBA solution were added, in this order. Samples were incubated at 60° C. for 60 minutes. After cooling, chloroform (750 μl) was added and mixed well. Following centrifugation, the aqueous layer was removed and used for HPLC analysis (column […]; mobile phase, 6:4(v/v) 0.04 M acetate buffer (pH 5.5)/MeOH; detection, 532 nm). The procedure was developed and performed by OXIS Research, Portland, Oreg."}, "Male Fisher 344 rats [3]": {"test_system": "Male Fisher 344 rats", "experiment": "Urinary 8,12-iso-iPF2α-VI by LC/MS/MS", "format": "in vivo, rat", "conditions": "for urinary 8,12-iso-iPF2α-VI, pretreated vs non-pretreated: indomethacin pretreatment", "description": "as §1, §2, §3, §4, §6\nAnalysis of 8,12-iso-iPF2α-VI, which is, along with its epimer 5-epi-8,12-iso-iPF2α-VI, the most prevalent PGF-ring isoprostane in human urine, was accomplished by addition of a tetradeuterated analog, solid phase extraction and quantitation using liquid chromatography and tandem mass spectroscopy (LC/MS/MS) (Li et al., 1999, Proc. Natl. Acad. Sci. USA 96: 13381-13386). The measurements were performed at the University of Pennsylvania, Philadelphia, Pa."}, "Male Fisher 344 rats [4]": {"test_system": "Male Fisher 344 rats", "experiment": "Urinary free 8-iso-PGF2α by radioimmunoassay", "format": "in vivo, rat", "description": "as §1, §3\nas §4, with “N.C. […]” for “N.C.”\nIn Experimental Example 2, urine samples were also analyzed for free 8-iso-PGF2α, without any extraction, by radioimmunoassay (Basu, 1998, Prost. Leuk. Ess. Fatty Acids. 58: 319-325). […]"}, "Male Fisher 344 rats [5]": {"test_system": "Male Fisher 344 rats", "experiment": "Plasma free 8-iso-PGF2α by GC/NICI-MS", "format": "in vivo, rat", "conditions": "meclofenamic acid 5 mg/kg i.p. pretreatment; only higher CCl4 dose, 7 h", "description": "as §1, §2, §3, §4, §5\nTwo slightly different methods developed in two different laboratories were used to measure the effect of CCl4 on the plasma levels of free 8-iso-PGF2α, and the sum of free plus esterified 8-iso-PGF2α (also known as 8-epi-PGF2α and iPF2α-III and 15-F2t-IsoP). Free 8-iso-PGF2α concentrations in plasma were determined by gas chromatography/negative ion chemical ionization mass spectrometry (GC/NICI-MS) by the method of Morrow et al. (1999, Methods Enzymol. 300: 3-12). Briefly, [2H4] 8-iso-PGF2α internal standard was added to plasma and F2-isoprostanes were extracted with a C18 Sep-Pak® Cartridge (Waters Associates, Milford, Mass.). The extracted F2-isoprostanes were converted to pentafluorobenzyl ester and purified by TLC after which they were converted to a trimethylsilyl ether derivative and subsequently analyzed by GC-MS. The assay was developed and performed at Vanderbilt University, Nashville, Tenn."}, "Male Fisher 344 rats [6]": {"test_system": "Male Fisher 344 rats", "experiment": "Urinary free plus esterified 8-iso-PGF2α by immunoassay", "format": "in vivo, rat", "description": "as §1, §2, §3, §4, §6\nUrinary 8-iso-PGF2α concentrations were measured by the competitive immunoassay procedure in which 8-iso-PGF2α conjugated to alkaline phosphatase competed with the test analyte for antibody specific for the isoprostane. The anti-8-iso-PGF2α antibody was captured by anti-Fc antibodies immobilized on a microtiter plate. The assay was developed by Assay Designs, Inc., Ann Arbor, Mich. and performed at OXIS Research, Portland, Oreg.\nIn an additional method not recited in Example 1, an immunoassay was used to measure the sum of free plus esterified 8-iso-PGF2α. The immunoassay used anti-8-iso-PGF2α antibody was developed by Assay Designs, Inc., Ann Arbor, Mich., and performed at Oxis Research, Portland, Oreg."}, "COX": {"test_system": "COX", "conditions": "5 mg/kg s.c. 24, 12 and 2 hours prior to CCl4; cited from earlier work"}, "Male Fisher 344 rats [7]": {"test_system": "Male Fisher 344 rats", "experiment": "Plasma MDA by GC/NICI-MS", "format": "in vivo, rat", "conditions": "indomethacin pretreatment; controls at 7 and 16 h, lower CCl4 dose at 2 and 16 h", "description": "as §1, §2, §4, §5\nPlasma MDA concentrations were also measured by using gas chromatography/negative ion chemical ionization mass spectroscopy (GC/NICI-MS) as described by Yeo et al. (Yeo et al., 1994, Anal. Biochem. 220: 391-396). The stable isotope internal standard [^2H2] MDA and an antioxidant (2,6-tert-butyl-4-methylphenol) were added to the plasma samples. The samples were then incubated at room temperature in 6.6 mol H2SO4 for 10 minutes to hydrolyze the aldehydes from the proteins. Plasma MDA was converted to a stable pentafluorophenyl hydrazine derivative which was quantified by using the GC-MS in the negative chemical ionization mode. The assay was performed at Children's Hospital Oakland Research Institute, Oakland, Calif."}, "Male Fisher 344 rats [8]": {"test_system": "Male Fisher 344 rats", "experiment": "Plasma MDA, TBA colorimetric assay with 3rd derivative spectroscopy", "format": "in vivo, rat", "conditions": "indomethacin pretreatment", "description": "as §1, §4, §5\nTwo colorimetric-based assays, using third derivative spectroscopy, were also used to measure MDA in plasma. The TBA colorimetric assay is designed to measure free MDA and MDA-protein adducts (Schiff base), and therefore includes mild acid hydrolysis. The Bioxytech® LPO-586™ colorimetric assay is based upon the reaction of the chromogenic reagent N-methyl-2-phenylindole (NMPI) with MDA at 45° C. One molecule of free MDA combines with 2 molecules of the chromogenic agent to produce a stable chromophore with a maximal absorbance at 586 nm. In both assays, the concentration of MDA was determined with 3rd derivative spectroscopy. Both assays were developed by OXIS Research Inc., Portland, Oreg., and were performed at OXIS and at Loyola University Medical Center, Maywood, Ill."}, "[9]": {"conditions": "meclofenamic acid pretreatment, 7 h"}}}
{"smiles": "Cc1ccc(Cl)c(Nc2ccccc2C(=O)O)c1Cl", "note": "[meclofenamic acid]", "values": [{"measurement": "plasma free plus esterified 8-iso-PGF2α, effect compared with that on free 8-iso-PGF2α", "setting": "Male Fisher 344 rats [1]; [9]", "value": "similar"}, {"measurement": "urinary MDA", "setting": "Male Fisher 344 rats [2]; higher dose of CCl4, 7 h", "value": "significant inhibition"}, {"measurement": "urinary MDA", "setting": "Male Fisher 344 rats [2]; low dose of CCl4, 7 h", "value": "increased"}, {"measurement": "CCl4-induced urinary 8,12-iso-iPF2α-VI", "setting": "Male Fisher 344 rats [3]; [9]", "value": "increased"}, {"measurement": "basal urinary free 8-iso-PGF2α (radioimmunoassay) vs control group", "setting": "Male Fisher 344 rats [4]; meclofenamic acid-treated rats, no CCl4", "value": "lower basal levels"}, {"measurement": "urinary free 8-iso-PGF2α (radioimmunoassay)", "setting": "Male Fisher 344 rats [4]; meclofenamic pretreatment, both doses of CCl4, 7 h", "value": "increased"}, {"measurement": "plasma free 8-iso-PGF2α, pretreated vs non-pretreated", "setting": "Male Fisher 344 rats [5]", "value": "significant decrease"}, {"measurement": "urinary free plus esterified 8-iso-PGF2α (immunoassay), pretreated vs non-pretreated", "setting": "Male Fisher 344 rats [6]; meclofenamic acid pretreatment, high CCl4 dose, 7 h", "value": "significant decrease"}]}
{"smiles": "COc1ccc2c(c1)c(CC(=O)O)c(C)n2C(=O)c1ccc(Cl)cc1", "note": "[indomethacin, 1-[p-chlorobenzoyl]-5-methoxy-2-methylindole-3-acetic acid]", "values": [{"measurement": "plasma free plus esterified 8-iso-PGF2α, pretreated vs non-pretreated", "setting": "Male Fisher 344 rats [1]; indomethacin pretreatment, only higher CCl4 dose at 2 and 7 h", "value": "statistically significant suppression"}, {"measurement": "inhibition of COX activity in rats", "setting": "COX", "value": 90, "unit": "%"}, {"measurement": "urinary MDA, pretreated vs non-pretreated", "setting": "Male Fisher 344 rats [2]; indomethacin pretreatment, controls and low-dose CCl4, both time points", "value": "increase in MDA excretion"}, {"measurement": "urinary 8,12-iso-iPF2α-VI, pretreated vs non-pretreated", "setting": "Male Fisher 344 rats [3]; controls, earlier time point", "value": "increased"}, {"measurement": "urinary 8,12-iso-iPF2α-VI, pretreated vs non-pretreated", "setting": "Male Fisher 344 rats [3]; higher dose CCl4", "value": "markedly inhibited"}, {"measurement": "urinary 8,12-iso-iPF2α-VI, pretreated vs non-pretreated", "setting": "Male Fisher 344 rats [3]; low dose CCl4", "value": "no effect"}, {"measurement": "plasma MDA (GC/MS), pretreated vs non-pretreated rats", "setting": "Male Fisher 344 rats [7]", "value": "statistically significant decrease"}, {"measurement": "plasma MDA (third derivative spectroscopy), pretreated vs non-pretreated", "setting": "Male Fisher 344 rats [8]", "value": "similarly decreased"}, {"measurement": "urinary free plus esterified 8-iso-PGF2α (immunoassay), pretreated vs non-pretreated", "setting": "Male Fisher 344 rats [6]; indomethacin pretreatment, controls at 7 h, higher CCl4 dose at both time points", "value": "Suppression"}]}
